According to US20160122320A1, “USEFUL COMBINATIONS OF MONOBACTAM ANTIBIOTICS WITH BETA-LACTAMASE INHIBITORS” (Basilea Pharmaceutica AG, priority 2005, published 2016):
“And” between values parts separate entries of the source, which are not always exact repeats. Equal values may be shown once.

Key:
Test in all cases: MIC, NCCLS broth microdilution
Format in all cases: cell-based
Settings in all cases: for MIC of antibiotic at fixed inhibitor concentration (4 mg/L): MIC of antibiotic compound 1 with the labelled bridged monobactam of formula II and clavulanate, 4 mg/L each; for MIC of antibiotic: antibiotic alone, no inhibitor
Enterobacter cloacae P99 = test system: Enterobacter cloacae P99
[1] = test system: Pseudomonas aeruginosa MK1184
Serratia marcescens S6 = test system: Serratia marcescens S6
[2] = test system: Klebsiella pneumoniae CF104
[3] = test system: Stenotrophomonas malthophilia 1AC736
[4] = test system: Pseudomonas aeruginosa 1973E
In short: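 Broth microdilution per NCCLS M7-A5, final DMSO ≤1%, overnight incubation at 30° C. or 37° C. MIC is the lowest concentration completely inhibiting visible growth, read by eye. In combination tests, formula I compounds were serially diluted with formula II and III-XIII partners held at 4 μg/mL each.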

Acinetobacter sp. J2 = test system: Acinetobacter sp. J2
[5] = Stenotrophomonas malthophilia 1AC736
[6] = Stenotrophomonas maltophilia 1AC736

| MIC of antibiotic at fixed inhibitor concentration (4 mg/L) (Enterobacter cloacae P99) | MIC of antibiotic at fixed inhibitor concentration (4 mg/L) [1] | MIC of antibiotic at fixed inhibitor concentration (4 mg/L) (Serratia marcescens S6) | MIC of antibiotic at fixed inhibitor concentration (4 mg/L) [2] | MIC of antibiotic at fixed inhibitor concentration (4 mg/L) [3, 5] | MIC of antibiotic at fixed inhibitor concentration (4 mg/L) [4] | MIC of antibiotic at fixed inhibitor concentration (4 mg/L) (Acinetobacter sp. J2; Acinetobacter sp. J2) | MIC of antibiotic (Enterobacter cloacae P99) | MIC of antibiotic [1] | MIC of antibiotic (Serratia marcescens S6) | MIC of antibiotic [2] | MIC of antibiotic [3, 5] | MIC of antibiotic [3, 6] | MIC of antibiotic [4] | MIC of antibiotic (Acinetobacter sp. J2; Acinetobacter baumannii J2) | MIC of antibiotic (Acinetobacter sp. J2; Acinetobacter sp. J2) | SMILES |
| --- | --- | --- | --- | --- | --- | --- | --- | --- | --- | --- | --- | --- | --- | --- | --- | --- |
| 8 µg/mL | >32 µg/mL | 0.25 µg/mL | 0.5 µg/mL | 0.125 µg/mL | 8 µg/mL | >32 µg/mL |  |  |  |  |  |  |  |  |  | CCOC(=O)c1cccc(NC(=O)N2CC[C@@H]3[C@H]2C(=O)N3S(=O)(=O)[O-])c1.[Na+] [Compound 320, Sodium(1S,5R)-2-{N-[3-(ethoxycarbonyl)phenyl]carbamoyl}-7-oxo-2,6-diazabicyclo[3.2.0]heptane-6-sulfonate] |
| 16 µg/mL | >32 µg/mL | 0.5 µg/mL | 0.5 µg/mL | 0.125 µg/mL | 4 µg/mL | >32 µg/mL |  |  |  |  |  |  |  |  |  | NS(=O)(=O)c1cccc(NC(=O)N2CC[C@@H]3[C@H]2C(=O)N3S(=O)(=O)[O-])c1.[Na+] [Compound 308] |
|  |  |  |  |  |  |  | 2 µg/mL | 32 µg/mL | 0.13 µg/mL and 0.125 µg/mL | 4 µg/mL | 4 µg/mL | 4 µg/mL | 4 µg/mL | 32 µg/mL | 32 µg/mL | CO/N=C(\C(=O)N[C@@H]1C(=O)N2C(C(=O)[O-])=C(C[N+]3(C)CCCC3)CS[C@H]12)c1csc(N)n1 [Cefepime] |
| 32 µg/mL | 32 µg/mL | 0.25 µg/mL | 1 µg/mL | 8 µg/mL | 4 µg/mL | 2 µg/mL |  |  |  |  |  |  |  |  |  | CN(C)n1ccc(SCC(=O)N2CC[C@@H]3[C@H]2C(=O)N3S(=O)(=O)O)nc1=O [Compound 203, (1S,5R)-2-{2-[1-(dimethylamino)-2-oxohydropyrimidin-4-ylthio]acetyl}-7-oxo-2,6-diazabicyclo[3.2.0]heptane-6-sulfonic acid] |
| 16 µg/mL | 8 µg/mL | 0.5 µg/mL | 2 µg/mL | 0.125 µg/mL | 4 µg/mL | 4 µg/mL |  |  |  |  |  |  |  |  |  | Cc1nnc(SCC(=O)N2CC[C@@H]3[C@H]2C(=O)N3S(=O)(=O)[O-])s1.[Na+] [Compound 202, Sodium(1S,5R)-2-[2-(1-methyl(1,3,4-thiadiazol-2-ylthio))acetyl]-7-oxo-2,6-diazabicyclo[3.2.0]heptane-6-sulfonate] |
|  |  |  |  |  |  |  | 0.13 µg/mL and 0.125 µg/mL | 2 µg/mL | 16 µg/mL | <0.06 µg/mL | 32 µg/mL | 32 µg/mL | 1 µg/mL | 2 µg/mL | 2 µg/mL | C[C@@H](O)[C@H]1C(=O)N2C(C(=O)O)=C(S[C@@H]3CN[C@H](C(=O)N(C)C)C3)[C@H](C)[C@H]12 [Meropenem, meropenem, reference compound] |
